Results published in ChEMBL document CHEMBL1201862, “PubChem BioAssay data set” (2004).
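48-hour exposure; five concentrations; linearly interpolated endpoints. At the GI50, growth is halved.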 Active and inactive are the calls of the source. Cut-off read from the data, not from the text of the source: active = GI50 up to about 1.1 µM and inactive = higher.

Assays:
Assay in all cases: NCI-60 cell line screen, 48 h
SK-OV-3 = tested on: SK-OV-3
RXF 393 = tested on: RXF 393
COLO 205 = tested on: COLO 205
SNB-19 = tested on: SNB-19
NCI-H522 = tested on: NCI-H522
ACHN = tested on: ACHN
TK-10 = tested on: TK-10
HCT-15 = tested on: HCT-15
KM12 = tested on: KM12
SF-539 = tested on: SF-539
HCC 2998 = tested on: HCC 2998
OVCAR-3 = tested on: OVCAR-3
SF-268 = tested on: SF-268
OVCAR-4 = tested on: OVCAR-4
SW-620 = tested on: SW-620
MOLT-4 = tested on: MOLT-4

Row | SMILES | GI50 (SK-OV-3) | GI50 (RXF 393) | GI50 (COLO 205) | GI50 (SNB-19) | GI50 (NCI-H522) | GI50 (ACHN) | GI50 (TK-10) | GI50 (HCT-15) [µM] | GI50 (KM12) | GI50 (SF-539) | GI50 (HCC 2998) | GI50 (OVCAR-3) | GI50 (SF-268) | GI50 (OVCAR-4) | GI50 (SW-620) | GI50 (MOLT-4)
1 | Cc1cc(N(CCC#N)CCC#N)ccc1/C=C1\N=C(c2cc([N+](=O)[O-])ccc2Cl)N(NC(=O)c2ccc(/N=C\c3ccc(N(CCC#N)S(C)(=O)=O)cc3C)cc2)C1=O | > 100 µM (inactive) | > 100 µM (inactive) | > 100 µM (inactive) | > 100 µM (inactive) | > 100 µM (inactive) | 89.9 µM (inactive) | > 100 µM (inactive) | 33 | > 100 µM (inactive) | > 100 µM (inactive) | > 100 µM (inactive) | > 100 µM (inactive) | > 100 µM (inactive) | > 100 µM (inactive) | > 100 µM (inactive) | 
2 | Cc1cccc(N2C(=O)/C(=C/c3ccc(N(CCC#N)CCC#N)cc3C)N=C2c2cc([N+](=O)[O-])ccc2Cl)c1 | > 100 µM (inactive) |  | 47.3 µM (inactive) | > 100 µM (inactive) | > 100 µM (inactive) | > 100 µM (inactive) | > 100 µM (inactive) | > 100 | > 100 µM (inactive) | > 100 µM (inactive) | > 100 µM (inactive) | > 100 µM (inactive) | > 100 µM (inactive) | > 100 µM (inactive) | > 100 µM (inactive) | 46.5 µM (inactive)
3 | CC1(C)O/C(=C\c2ccccc2)C(=O)/C(=C/c2ccccc2)O1 | 72.6 µM (inactive) | 13.9 µM (inactive) | 43.3 µM (inactive) | 47.4 µM (inactive) | 3.4 µM (inactive) | 33.8 µM (inactive) | 44.2 µM (inactive) |  | 53.8 µM (inactive) | 67 µM (inactive) |  | 27.1 µM (inactive) | 57.4 µM (inactive) | 56.6 µM (inactive) | 55.1 µM (inactive) | 14.7 µM (inactive)
4 | COC(=O)C1CC(C(=O)OC)c2nc3cc(C)ccc3nc21 (centres undefined) | > 100 µM (inactive) |  | > 100 µM (inactive) | > 100 µM (inactive) | > 100 µM (inactive) | > 100 µM (inactive) | > 100 µM (inactive) | > 100 | > 100 µM (inactive) | > 100 µM (inactive) | > 100 µM (inactive) | > 100 µM (inactive) | > 100 µM (inactive) | > 100 µM (inactive) | > 100 µM (inactive) | > 100 µM (inactive)
5 | NCCCC(N/C=C1/N=C(c2ccccc2)OC1=O)C(=O)O (centres undefined) | > 100 µM (inactive) | > 100 µM (inactive) | > 100 µM (inactive) | > 100 µM (inactive) | 40.8 µM (inactive) | > 100 µM (inactive) | > 100 µM (inactive) | > 100 |  | > 100 µM (inactive) | > 100 µM (inactive) | > 100 µM (inactive) | > 100 µM (inactive) | > 100 µM (inactive) | > 100 µM (inactive) | > 100 µM (inactive)
6 | COC(=O)C1=Cc2cc(OC)c(OC)cc2[C@H](c2ccc(OC)c(OC)c2)C1C(=O)OC (some centres undefined) | > 100 µM (inactive) | > 100 µM (inactive) | > 100 µM (inactive) | > 100 µM (inactive) |  | > 100 µM (inactive) | > 100 µM (inactive) | 76 | > 100 µM (inactive) | 69.8 µM (inactive) | > 100 µM (inactive) | > 100 µM (inactive) | > 100 µM (inactive) | > 100 µM (inactive) | > 100 µM (inactive) | > 100 µM (inactive)
7 | Cc1ccc2[nH]c3c4c5ccccc5nc-4c[nH]c3c2c1 | 12.6 µM (inactive) | 13.8 µM (inactive) | 17.5 µM (inactive) | 17.3 µM (inactive) | 21.5 µM (inactive) | 16.7 µM (inactive) | 21 µM (inactive) |  | 15.6 µM (inactive) | 16.9 µM (inactive) | 16.1 µM (inactive) | 10 µM (inactive) | 17 µM (inactive) | 22.1 µM (inactive) | 13.7 µM (inactive) | 16.2 µM (inactive)
8 | CCOC(=O)C(=O)Nc1ccc([N+](=O)[O-])cc1C#N | > 100 µM (inactive) | > 100 µM (inactive) |  | > 100 µM (inactive) | > 100 µM (inactive) | > 100 µM (inactive) | > 100 µM (inactive) | > 100 | > 100 µM (inactive) | > 100 µM (inactive) | > 100 µM (inactive) | > 100 µM (inactive) | > 100 µM (inactive) | > 100 µM (inactive) | > 100 µM (inactive) | > 100 µM (inactive)
9 | CCCOc1ccc(/C=C/c2cc(OC)c(OC)c(OC)c2)cc1 |  | 0.254 µM (active) | 0.298 µM (active) | 0.681 µM (active) | 0.175 µM (active) | 0.697 µM (active) | 55.1 µM (inactive) | 0.348 | 0.305 µM (active) | 0.269 µM (active) | 3.02 µM (inactive) | 0.146 µM (active) | 0.618 µM (active) | 0.971 µM (active) | 0.218 µM (active) | 0.443 µM (active)
